# Structures can show the parent of a compound that is named as a salt. Where two headings read alike, the source gives them in different places. Square brackets hold non-standard residues; d marks the D form. Peptide text beside a SMILES is read from it. * marks the point of attachment. sY = N[C@@H](Cc1ccc(OS(=O)(=O)O)cc1)C(=O)O; Cbz = O=C(OCc1ccccc1)*; Boc = CC(C)(C)OC(=O)*
# Experiments:
# kappa receptor = settings: D. Roemer et al., Nature, 298, 759 (1982); cited from earlier work
# rats = settings: J. E. Morley et al.; cited from earlier work
# CCK-receptor = settings: structure-function studies, in words; cited from earlier work
# CCK receptor (brain) = molecular target: T1, CCK receptor (brain) (Cavia porcellus, UniProt H0VZC5); test: CCK receptor binding (brain) method, inhibition of ^125 I-CCK-33 binding; set-up: species or system male Hartley guinea pig
# T1 construct: The cerebral cortex was dissected and used as a receptor source; from tissue; host or cells: cerebral cortex of male Hartley guinea pig, membrane homogenate
# Method: (§1) Screening of the novel compounds according to the present invention to determine biological activity and obtain an IC50 value for them, in order to identify significant CCK-antagonism, may be accomplished using an ^125 I-CCK receptor binding assay and in vitro isolated tissue preparations. These tests involve the following:
# CCK receptor binding (brain) method
# CCK-33 was radiolabeled and the binding was performed according to the description for the pancreas method, with modifications according to Saito et al., J. Neurochem., 37, 483-490, 1981.
# Male Hartley guinea pigs (300-500 g) were sacrificed by decapitation, and the brains were removed and placed in ice-cold 50 mM Tris HCl (Trizma-7.4)[pH 7.4 at 25° C.]. The cerebral cortex was dissected and used as a receptor source and each gram of fresh guinea pig brain tissue was homogenized in 10 ml of Tris/Trizma buffer with a Brinkman polytron PT-10. The homogenates were centrifuged at 42,000 g for 15 minutes, then the resulting pellets were resuspended in 80 volumes of binding assay buffer (10 mM N-2-hydroxy-ethyl-piperazine-N'-2-ethanesulfonic acid (HEPES), 5 mM MgCl2, 1 mM ethylene glycol-bis-(β-amino-ethyl-ether-N,N'-tetraacetic acid (EGTA), 0.4% BSA and 0.25 mg/ml bacitracin, pH 6.5).
# The remainder of the binding assay method was as described for the pancreas method, except that the reaction mixtures were incubated at 25° C. for 2 hours before centrifugation.
# CCK receptor (pancreas) = molecular target: T2, CCK receptor (pancreas) (Rattus norvegicus, UniProt P30551); test: CCK receptor binding (pancreas) method, inhibition of ^125 I-CCK-33 binding; set-up: species or system male Sprague-Dawley rat; settings: for effect on the ^125 I-CCK receptor binding assay: additional protease inhibitors in the assay buffer
# T2 construct: The whole pancreas of a male Sprague-Dawley rat (200-350 g); from tissue; host or cells: whole pancreas of male Sprague-Dawley rat, washed membrane homogenate
# T2 sequence (P30551 1-444): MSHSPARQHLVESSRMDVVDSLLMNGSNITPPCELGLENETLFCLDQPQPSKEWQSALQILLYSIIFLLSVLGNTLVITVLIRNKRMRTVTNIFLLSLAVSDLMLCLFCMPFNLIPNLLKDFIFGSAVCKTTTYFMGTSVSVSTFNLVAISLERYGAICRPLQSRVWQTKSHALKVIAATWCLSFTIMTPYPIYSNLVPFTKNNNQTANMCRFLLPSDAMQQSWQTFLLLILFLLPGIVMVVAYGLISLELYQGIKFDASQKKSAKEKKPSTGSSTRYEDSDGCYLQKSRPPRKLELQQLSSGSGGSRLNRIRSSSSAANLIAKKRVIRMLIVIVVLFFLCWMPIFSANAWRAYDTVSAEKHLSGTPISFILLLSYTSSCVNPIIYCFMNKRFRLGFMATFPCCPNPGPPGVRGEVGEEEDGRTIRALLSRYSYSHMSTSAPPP
# From the text: as §1
# CCK receptor binding (pancreas) method
# CCK-33 was radiolabeled with ^125 I-Bolton Hunter reagent (2000 Ci/mmole), as described by Sankara et al. (J. Biol. Chem., 254, 9349-9351, 1979).
# The whole pancreas of a male Sprague-Dawley rat (200-350 g), which had been sacrificed by decapitation, was dissected free of fat tissue and homogenized in 20 volumes of ice-cold 50 mM Tris HCl (pH 7.7 at 25° C.) with a Brinkmann Polytron PT-10. The homogenates were centrifuged at 48,000 g for 10 minutes, then the resulting pellets were resuspended in Tris Buffer, centrifuged as above, and resuspended in 200 volumes of binding assay buffer (50 mM Tris HCl, pH 7.7 at 25° C., 5 mM dithiothreitol, 0.1 mM bacitracin, 1.2 mM phenylmethane sulfonyl fluoride and 0.5 mM o-phenanthroline).
# All assays were run in duplicate or triplicate, and the reaction mixtures were incubated at 37° C. for 30 minutes and centrifuged in a Beckman Microfuge (4 minutes) immediately after adding 1 ml of ice-cold incubation buffer. The supernatant was aspirated and discarded, and the pellets were counted with a Beckman Gamma 5000.
# [1] = in words; cited from earlier work
# [2] = concentration required to cause inhibition of 50% of the ^125 I-CCK binding, pancreas, 37° C., 30 minutes
# T1 sequence (H0VZC5 entry or part of it): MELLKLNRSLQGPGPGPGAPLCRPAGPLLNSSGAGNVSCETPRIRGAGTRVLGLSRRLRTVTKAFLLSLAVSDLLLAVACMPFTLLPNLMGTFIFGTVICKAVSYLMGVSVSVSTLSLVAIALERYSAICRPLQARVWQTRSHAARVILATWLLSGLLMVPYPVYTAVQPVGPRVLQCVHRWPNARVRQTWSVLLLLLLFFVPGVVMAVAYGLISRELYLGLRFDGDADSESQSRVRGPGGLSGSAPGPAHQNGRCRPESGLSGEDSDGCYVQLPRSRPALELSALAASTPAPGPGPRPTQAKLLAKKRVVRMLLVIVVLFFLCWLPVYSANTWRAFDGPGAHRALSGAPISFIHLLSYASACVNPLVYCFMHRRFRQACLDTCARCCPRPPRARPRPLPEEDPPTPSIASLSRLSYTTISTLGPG
SMILES,"IC50 (CCK receptor (brain); read-out: IC50 CCK, Brain)",IC50 (CCK receptor (pancreas)),IC50 (CCK receptor (pancreas); [2]),further results
CN1c2ccccc2C(c2ccccc2F)=NCC1CNC(=O)c1ccsc1 (stereo not drawn),–,–,–,"opiate agonism, selectivity for the kappa receptor (kappa receptor): opiate-agonist with selectivity for the kappa receptor; food intake (rats): increase food intake in rats"
CSCC[C@H](NC(=O)OC(C)(C)C)C(=O)N[C@@H](CC(=O)O)C(=O)N[C@@H](Cc1ccccc1)C(N)=O [Boc-Met-Asp-Phe-NH2] (Boc-Met-Asp-Phe-NH2),–,–,–,CCK antagonism (CCK-receptor): can function as CCK antagonists
"CN1c2ccccc2C(c2ccccc2F)=NCC1CNc1cccc(C(F)(F)F)c1 (stereo not drawn) [Example 6, 1-methyl-2-(3'-trifluoromethylphenyl)aminomethyl-5-(2'-fluorophenyl)-2,3-dihydro-1H-1,4-benzodiazepine]",~100 µM,2.2 µM,–,–
"CN1c2ccccc2C(c2ccccc2F)=NCC1CNC(=O)c1ccsc1 (single isomer, unassigned; (-)) [(-)-enantiomer]",–,–,–,analgesic activity [1]: preferred for high analgesic activity
"O=S(=O)(F)Cc1ccccc1 [phenyl-methane sulfonyl fluoride, reference compound]",–,–,–,effect on the ^125 I-CCK receptor binding assay (CCK receptor (pancreas)): no effect
"CN1c2ccccc2C(c2ccccc2F)=NCC1CNC(=O)[C@H](Cc1c[nH]c2ccccc12)NC(=O)OC(C)(C)C (stereo partly drawn) [Example 7, 1-methyl-2-[2-((1,1-dimethylethoxy)carbonyl)amino-3-(1H-indol-3-yl)propanoyl]aminomethyl-5-(2'-fluorophenyl)-2,3-dihydro-1H-1,4-benzodiazepine]",–,4.1 µM,–,IC50 (CCK receptor (brain)): 38.6 µM
"CC(C)COC(=O)NCC1CN=C(c2ccccc2F)c2ccccc2N1C (stereo not drawn) [Example 8, 1-methyl-2-[(2-methylpropoxy)carbonyl]aminomethyl-5-(2'-fluorophenyl)-2,3-dihydro-1H-1,4-benzodiazepine]",~100 µM,–,5.8 µM,–
"COC(=O)[C@H](Cc1ccccc1)NCC1CN=C(c2ccccc2F)c2ccccc2N1C (stereo partly drawn) [Example 5, 1-methyl-2-[1-(S)-1-methoxycarbonyl-2-phenylethylamino]methyl-5-(2'-fluorophenyl)-2,3-dihydro-1H-1,4-benzodiazepine]",~100 µM,1.6 µM,–,–
"CC(=O)NCSCC(=O)NCC1CN=C(c2ccccc2F)c2ccccc2N1C (stereo not drawn) [Example 13, 1-methyl-2-(acetamidomethylmercaptoacetyl)aminomethyl-5-(2'-fluorophenyl-2,3-dihydro-1H-1,4-benzodiazepine hydrate]",~100 µM,–,100 µM,–
"CN1c2ccccc2C(c2ccccc2F)NCC1CNC(=O)c1ccsc1 (stereo not drawn) [Example 14, 1-methyl-2-(3-thiophenecarbonyl)aminomethyl-5-(2'-fluorophenyl)-2,3,4,5-tetrahydro-1H-1,4-benzodiazepine]",~100 µM,–,4.8 µM,–
"CN1c2ccccc2C(c2ccccc2F)=NCC1CNC(=O)[C@@H](N)Cc1c[nH]c2ccccc12 (stereo partly drawn) [Example 9, 1-methyl-2-[2-amino-3-(1H-indol-3-yl)propanoyl]aminomethyl-5-(2'-fluorophenyl)-2,3-dihydro-1H-1,4-benzodiazepine dihydrochloride sesquihydrate]",–,11.6 µM,–,IC50 (CCK receptor (brain)): ~100 µM
"CN1c2ccccc2C(c2ccccc2F)=NCC1CNC(=O)[C@@H](O)c1ccccc1 (stereo partly drawn) [Example 3, 1-methyl-2-(2-L-hydroxy-2-phenylacetyl)aminomethyl-5-(2'-fluorophenyl)-2,3-dihydro-1H-1,4-benzodiazepine]",~100 µM,0.6 µM,–,–
"CN1c2ccccc2C(c2ccccc2F)=NCC1CNC(=O)Cc1c[nH]c2ccccc12 (stereo not drawn) [Example 4, 1-methyl-2-(1H-indol-3-yl)methylcarbonylaminomethyl-5-(2'-fluorophenyl)-2,3-dihydro-1H-1,4-benzodiazepine hydrate]",56 µM,1 µM,–,–
"CN1c2ccccc2C(c2ccccc2F)=NCC1CNC(=O)Cc1cccc2sccc12 (stereo not drawn) [Example 2, 1-methyl-2-(4-thianaphthenemethylcarbonyl)aminomethyl-5-(2'-fluorophenyl)-2,3-dihydro-1H-1,4-benzodiazepine]",–,–,0.45 µM,IC50 (CCK receptor (brain)): 23 µM
CSCC[C@H](NC(=O)[C@H](Cc1ccc(OS(=O)(=O)O)cc1)NC(=O)OCc1ccccc1)C(=O)NCC(=O)N[C@@H](Cc1c[nH]c2ccccc12)C(=O)N[C@@H](CCSC)C(=O)N[C@@H](CC(=O)O)C(N)=O [Cbz-Tyr(SO3 H)-Met-Gly-Trp-Met-Asp-NH2] (Cbz-[sY]MGWMD-NH2),–,–,–,CCK antagonism (CCK-receptor): can function as CCK antagonists
CSCC[C@H](N)C(=O)N[C@@H](CC(=O)O)C(=O)N[C@@H](Cc1ccccc1)C(N)=O [Met-Asp-Phe-NH2] (H-Met-Asp-Phe-NH2),–,–,–,CCK antagonism (CCK-receptor): can function as CCK antagonists
"CC(=O)NCSCC(NC(=O)OC(C)(C)C)C(=O)NCC1CN=C(c2ccccc2F)c2ccccc2N1C [Example 11, 1-methyl-2-[2(S)-((1,1-dimethylethoxy)carbonyl)amino-3-acetamidomethylmercaptopropanoyl]aminomethyl-5-(2'-fluorophenyl)-2,3-dihydro-1H-1,4-benzodiazepine hemihydrate]",–,24 µM,–,–
"COC(C(=O)NCC1CN=C(c2ccccc2F)c2ccccc2N1C)(c1ccccc1)C(F)(F)F (stereo not drawn) [Example 10, 1-methyl-2-(2-methoxy-2-trifluoromethyl-2-phenylacetyl)aminomethyl-5-(2'-fluorophenyl)-2,3-dihydro-1H-1,4-benzodiazepine]",–,–,13 µM,IC50 (CCK receptor (brain)): ~100 µM
"CN1c2ccccc2C(c2ccccc2F)=NCC1CNC(=O)c1cc2ccccc2[nH]1 (stereo not drawn) [Example 1, 1-methyl-2-(2'-indolecarbonyl)aminomethyl-5-(2'-fluorophenyl)-2,3-dihydro-1H-1,4,-benzodiazepine]",14 µM,–,0.16 µM,–
"CN1c2ccccc2C(c2ccccc2F)=NCC1CNC(=O)CCC(=O)OCc1ccccc1 (stereo not drawn) [Example 12, 1-methy-2-benzoylsuccinoylaminomethyl-5-(2'-fluorophenyl)-2,3-dihydro-1H-1,4-benzodiazepine]",–,–,45 µM,IC50 (CCK receptor (brain)): 55 µM
CCCC(=O)Nc1nc2c(ncn2[C@@H]2O[C@@H]3COP(=O)(O)O[C@H]3[C@H]2OC(=O)CCC)c(=O)[nH]1 [dibutyryl cyclic GMP],–,–,–,CCK antagonism (CCK-receptor): most potent
"c1cnc2c(c1)ccc1cccnc12 [o-phenanthroline, reference compound]",–,–,–,effect on the ^125 I-CCK receptor binding assay (CCK receptor (pancreas)): no effect

# Reference: patent publication US4724237A, “2-substituted-aminomethyl-1,4-benzodiazepines” (Merck & Co., Inc., priority 1984, dated 1988)
